# In patent publication US20150125915A1, “Method for Producing Lactic Acid” (Kao Corporation, priority 2012, published 2015):
# How the values were obtained:
# Assay type in all cases: cell-based
# [1] = test system: Rhizopus oryzae NBRC 4785; experiment: Evaluation of ability to produce lactic acid-2, strain NBRC 4785; conditions: 0.5% (w/v) at spore germination, control of the strain without surfactant = 100
# Method: (§1) (1) Spore suspensions were prepared in the same way as in Production Example 1 using Rhizopus oryzae NBRC 4707, NBRC 4785, NBRC 5384 (=JCM14625), and NBRC 5418 strains obtained from a culture collection NBRC.
# (§2) (2) Mycelia were prepared from the spores of each strain under the same conditions as in Production Example 2 involving stirring at 100 rpm using 60 mL of a PDB medium non-supplemented or supplemented with 0.5% (w/v) (final concentration) of the surfactant sorbitan monolaurate (Rheodol(R) SP-L10, manufactured by Kao Corp.).
# (§3) (3) The total amount of the fungus bodies obtained in (2) was inoculated to 100 mL of an inorganic culture medium under the same conditions as in Production Example 3 to grow the mycelia. […]
# (§4) 30 g of the prepared wet fungus bodies of each strain of the genus Rhizopus was inoculated to 100 mL of an inorganic culture medium for lactic acid production evaluation (composition: 12.5% glucose, 0.1% ammonium sulfate, 0.06% potassium dihydrogen phosphate, 0.025% magnesium sulfate heptahydrate, 0.009% zinc sulfate heptahydrate, and 6.25% calcium carbonate; all the concentrations mean % (w/v)) applied to a 500-mL Erlenmeyer flask, and then cultured at 33.5° C. with stirring at 170 rpm. The production rate of lactic acid was determined by the same procedures as in Test Example 2. […]
# [2] = test system: Rhizopus oryzae NBRC 4707; experiment: Evaluation of ability to produce lactic acid-2, strain NBRC 4707; conditions: 0.5% (w/v) at spore germination, control of the strain without surfactant = 100
# Method: as §1, §2, §3, §4
# [3] = test system: Rhizopus oryzae JCM14625 strain (=NBRC 5384); experiment: Evaluation of ability to produce lactic acid-3 (surfactant concentration in the spore germination medium); conditions: no surfactant = 100
# Method: (1) 200 mL of a PDB medium non-supplemented or supplemented with 0.01, 0.05, 0.25, 0.50, 1.0, 1.5, or 2.5% (w/v) (final concentration) of sorbitan monolaurate (Rheodol(R) SP-L10, manufactured by Kao Corp.) was applied to a 500-mL baffled Erlenmeyer flask (manufactured by Asahi Glass Co., Ltd.). The Rhizopus oryzae spore suspension prepared in Production Example 1 was inoculated thereto at a dose of 1×10^3 spores/mL of the medium and then cultured at 27° C. for 3 days with stirring at 110 rpm.
# (2) The cultures were filtered through a filter support and a nylon net filter of 180 μm mesh size (manufactured by EMD Millipore) sterilized in advance to recover fungus bodies onto the filter. From 2.0 to 3.0 g of the recovered fungus bodies was inoculated to 100 mL of an inorganic culture medium (composition: 10% glucose, 0.1% ammonium sulfate, 0.06% potassium dihydrogen phosphate, 0.025% magnesium sulfate heptahydrate, 0.009% zinc sulfate heptahydrate, and 5.0% calcium carbonate; all the concentrations mean % (w/v)) applied to a 500-mL Erlenmeyer flask, and then cultured at 27° C. for approximately 40 hours with stirring at 220 rpm.
# (3) Control conditions in the absence of the surfactant involved culturing spores with stirring by the same procedures as in (1) using a PDB medium non-supplemented with the surfactant and then inoculating from 4 to 8 mL of the PDB seed culture medium to 100 mL of the inorganic culture medium by the same procedures as in (2), followed by culture.
# (4) Subsequently, the cultures thus obtained by culture in the inorganic culture medium were filtered through a filter support and a nylon net filter of 180 μm mesh size (manufactured by EMD Millipore) sterilized in advance to recover fungus bodies onto the filter. On this filter, the fungus bodies were further washed with from 50 to 200 mL of saline to obtain fungus bodies.
# 30 g of the prepared wet fungus bodies of the genus Rhizopus was inoculated to 100 mL of an inorganic culture medium for lactic acid production evaluation (composition: 12.5% glucose, 0.1% ammonium sulfate, 0.06% potassium dihydrogen phosphate, 0.025% magnesium sulfate heptahydrate, 0.009% zinc sulfate heptahydrate, and 6.25% calcium carbonate; all the concentrations mean % (w/v)) and then cultured at 33.5° C. with stirring at 170 rpm. The fungus body-free supernatant of the culture medium was recovered every 1 hour from 30 minutes after the fungus body inoculation. Glucose and lactic acid were quantified by the procedures described later in Reference Example 1. A relative value of the production rate of lactic acid was determined on the basis of the calculation method described in Reference Example 2.
# The concentration of lactic acid (unit: g of lactic acid/L of medium) in the supernatant sample of each culture medium was measured according to Reference Example 1 and divided by a time (unit: hr) required for change in lactic acid concentration to calculate the production rate of lactic acid per unit time (unit: g of lactic acid/L/hr). In addition, a relative value to the production rate of lactic acid under control conditions in each Production Example was determined.
substance,measurement,setting,value
Sorbitan monolaurate,Production rate of lactic acid (relative value),[1],170 relative value
same,Production rate of lactic acid (relative value),[2],135 relative value
same,Production rate of lactic acid (relative value),[3]; 0.01% w/v in germination medium,119 relative value
same,Production rate of lactic acid (relative value),[3]; 0.05% w/v in germination medium,133 relative value
same,Production rate of lactic acid (relative value),[3]; 0.25% w/v in germination medium,116 relative value
same,Production rate of lactic acid (relative value),[3]; 0.50% w/v in germination medium,138 relative value
same,Production rate of lactic acid (relative value),[3]; 1.00% w/v in germination medium,140 relative value
same,Production rate of lactic acid (relative value),[3]; 1.50% w/v in germination medium,117 relative value
same,Production rate of lactic acid (relative value),[3]; 2.50% w/v in germination medium,98 relative value
